This note sets out measurements from PubChem BioAssay (NCI).

Structures are written as SMILES.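 Briefly, cells in 96-well plates were exposed to five compound concentrations for 48 h, and endpoints were estimated by linear interpolation. The concentration for 50% growth inhibition is given as GI50. The concentration for full growth arrest is given as TGI.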

Test systems include SW-620 colon; A549 NSCLC; SNB-75 CNS; M14 melanoma; CCRF-CEM leukemia; UACC-257 melanoma; SN12C renal; PC-3 prostate.
Common to all, as to assay: NCI tumour cell line growth inhibition, 48 h

With `Nc1nc(N)c2cc(S(=O)(=O)c3ccccc3)ccc2n1`, the GI50 in the assay with SW-620 colon was 0.512 µM; in the assay on A549 NSCLC, 0.622 µM; with SNB-75 CNS, 8.86 µM; in the assay on M14 melanoma, 0.506 µM; with CCRF-CEM leukemia, 2.93 µM; in the assay on UACC-257 melanoma, 14.9 µM. The GI50 was 3.21 µM with SN12C renal and 0.838 µM in the assay on PC-3 prostate. Besides, the TGI in the assay with SW-620 colon, in the assay with A549 NSCLC, with SNB-75 CNS, in the assay with M14 melanoma, with CCRF-CEM leukemia and with UACC-257 melanoma was over 100 µM in each case. Also, the TGI with SN12C renal and with PC-3 prostate was over 100 µM in each case.
On to `Clc1ccc2c(NCCNc3nc(N4CCCCC4)nc4ccccc34)ccnc2c1`, for which the GI50 was 1.34 µM in the assay on SW-620 colon; 2.16 µM with A549 NSCLC; 1.78 µM in the assay with SNB-75 CNS; 1.82 µM in the assay on M14 melanoma; 1.99 µM in the assay with CCRF-CEM leukemia; 1.94 µM in the assay with UACC-257 melanoma. For the same molecule, the figures for the GI50 in the assay with SN12C renal and in the assay with PC-3 prostate were 2.13 µM and 3.17 µM, respectively. Besides, the TGI amounted to 3.33 µM in the assay on SW-620 colon; 9.87 µM with A549 NSCLC; 7.46 µM in the assay with SNB-75 CNS; 3.61 µM in the assay with M14 melanoma; 45.4 µM with CCRF-CEM leukemia; 3.77 µM in the assay on UACC-257 melanoma. Besides, the TGI in the assay on SN12C renal was determined as 6.84 µM; in the assay with PC-3 prostate, 14.4 µM.
As for `COc1ccc2c3c1OC1C4(CCC5C(C2)N(CC2CC2)CCC351)OCCO4` (stereo not given), the TGI with SW-620 colon, in the assay on A549 NSCLC, in the assay on SNB-75 CNS, in the assay on M14 melanoma, with CCRF-CEM leukemia and in the assay with UACC-257 melanoma was over 100 µM each time. Further, the TGI in the assay with SN12C renal and in the assay with PC-3 prostate was over 100 µM each time.
With `COC(=O)C(Br)(C(=O)OC)C(Br)C(Br)C(Br)c1ccccc1` (stereo not given), the GI50 was 1.64 µM in the assay on SW-620 colon; 16.9 µM in the assay on A549 NSCLC; 2.07 µM in the assay on SNB-75 CNS; 2.47 µM with M14 melanoma; 2 µM with CCRF-CEM leukemia; 1.88 µM in the assay with UACC-257 melanoma. The figures for the GI50 in the assay on SN12C renal and in the assay on PC-3 prostate were 2.16 µM and 4.58 µM, respectively. The TGI with SW-620 colon was determined as 3.07 µM; in the assay on A549 NSCLC, 33 µM; with SNB-75 CNS, 7.08 µM; in the assay with M14 melanoma, 6.2 µM; in the assay on CCRF-CEM leukemia it was 7.21 µM; in the assay on UACC-257 melanoma, 4.4 µM. Besides, the TGI in the assay on SN12C renal came to 5.3 µM; with PC-3 prostate, 17.3 µM.
Take `O=C(Oc1c(Cl)c(Cl)c(Cl)c(Cl)c1Cl)C1CCCN1C(=O)OCc1ccccc1` (stereo not given): the GI50 in the assay on SW-620 colon was 3.44 µM; with A549 NSCLC it was 3.97 µM; in the assay on SNB-75 CNS, 2.66 µM; in the assay on M14 melanoma, 4 µM; with CCRF-CEM leukemia it was 3.01 µM; in the assay on UACC-257 melanoma, 4.29 µM. In addition, the figures for the GI50 in the assay with SN12C renal and in the assay with PC-3 prostate were 3.24 µM and 2.95 µM, respectively. In addition, the TGI stood at 14.4 µM with SW-620 colon; 18.2 µM in the assay with A549 NSCLC; 10.2 µM in the assay on SNB-75 CNS; 16.4 µM in the assay with M14 melanoma; 14.3 µM with CCRF-CEM leukemia; 17.7 µM in the assay on UACC-257 melanoma. In addition, the TGI was found to be 12.5 µM with SN12C renal and 11.6 µM in the assay on PC-3 prostate.
`CSc1ccc(NC(=O)CCl)cc1`: the TGI in the assay with SW-620 colon was over 10 µM; with A549 NSCLC, 5.79 µM; with SNB-75 CNS, 6.23 µM; with M14 melanoma it was 3.73 µM; with CCRF-CEM leukemia, over 10 µM; in the assay with UACC-257 melanoma, over 10 µM. The TGI in the assay with SN12C renal and with PC-3 prostate was over 10 µM in each case.
On to `Nc1ccccc1-n1c2c(c3ccccc3c1=O)C(=O)c1ccccc1-2`, for which the TGI in the assay with SW-620 colon, in the assay with A549 NSCLC, with SNB-75 CNS, with M14 melanoma, in the assay with CCRF-CEM leukemia and with UACC-257 melanoma was over 100 µM in each case. Besides, the TGI was over 100 µM with SN12C renal and 97.4 µM in the assay on PC-3 prostate.
`COc1ccc(-c2cncn2-c2ccc(-c3nc4cc(OC)c(OC)c(OC)c4s3)cc2)cc1N`: the GI50 in the assay with SW-620 colon is 6.21 µM; with A549 NSCLC, 5.77 µM; in the assay with SNB-75 CNS it was 52.3 µM; in the assay on M14 melanoma, 5.91 µM; with CCRF-CEM leukemia, 3.41 µM; in the assay on UACC-257 melanoma it was over 100 µM. The GI50 in the assay on SN12C renal was 9.44 µM; in the assay on PC-3 prostate, 2.59 µM. In addition, the TGI with SW-620 colon, in the assay on A549 NSCLC, with SNB-75 CNS, in the assay with M14 melanoma, in the assay on CCRF-CEM leukemia and in the assay with UACC-257 melanoma was over 100 µM in each case. The TGI in the assay with SN12C renal and in the assay on PC-3 prostate was over 100 µM throughout.
Take `COc1ccc(C(=O)c2cc(C)c(OC)c(C)c2)c(OC)c1OC(=O)C(Cl)Cl`: the GI50 was 0.0377 µM in the assay on SW-620 colon; 0.361 µM with A549 NSCLC; 0.031 µM in the assay on SNB-75 CNS; 0.0229 µM in the assay with M14 melanoma; 0.0386 µM in the assay on CCRF-CEM leukemia; 25.6 µM in the assay with UACC-257 melanoma. For the same molecule, the GI50 in the assay with SN12C renal was 0.0956 µM; in the assay on PC-3 prostate, 0.0436 µM. Besides, the TGI in the assay with SW-620 colon, in the assay on A549 NSCLC, in the assay on SNB-75 CNS, in the assay with M14 melanoma, in the assay on CCRF-CEM leukemia and in the assay on UACC-257 melanoma was over 100 µM each time. Besides, the TGI in the assay with SN12C renal and in the assay on PC-3 prostate was over 100 µM in each case.
For the molecule `COc1ccc(-n2nc(C(=O)NCC(=O)Nc3nc4cc(OC)ccc4s3)c3ccccc3c2=O)cc1`, the GI50 in the assay on SW-620 colon was 0.66 µM; in the assay with A549 NSCLC, 0.349 µM; with SNB-75 CNS it was 0.554 µM; in the assay with M14 melanoma it was 2.37 µM; in the assay on CCRF-CEM leukemia, over 100 µM; with UACC-257 melanoma, 1.28 µM. The figures for the GI50 in the assay on SN12C renal and in the assay on PC-3 prostate were 3.45 µM and 1.26 µM, respectively. The TGI in the assay with SW-620 colon was over 100 µM; in the assay with A549 NSCLC, 1.51 µM; in the assay with SNB-75 CNS, 2.08 µM; in the assay on M14 melanoma, over 42.9 µM; in the assay with CCRF-CEM leukemia, over 100 µM; in the assay with UACC-257 melanoma, 5.07 µM. The molecule also had a TGI in the assay with SN12C renal of over 40.7 µM.
